Data published in patent US20230035592A1, “DIRECT AMPK ACTIVATOR COMPOUNDS COMBINED WITH INDIRECT AMPK ACTIVATOR COMPOUNDS, COMPOSITIONS, METHODS AND USES THEREOF” (SOCIETE DES PRODUITS NESTLE S.A., priority 2019, published 2023).

Assays:
[1] = system: AMPK; test: pACC HTRF (Cisbio) assay, phosphorylation of ACC in U-2 OS Flp-In T-REx cells; format: cell-based; details: for phosphorylation of the AMPK substrate ACC (ratio 665/620 nm): varying concentrations, 30 mins at 37 C
Procedure: U-2 OS cells were treated with varying concentrations of compound 1 for 30 mins at 37 C. Phosphorylation of ACC was assessed using the HTRF Cisbio (pACC kit).
U-2 OS cells were treated with varying concentrations of compound 1 for 30 mins at 37 C in the presence or absence of 11 μM of compound 2. Phosphorylation of ACC was assessed using the HTRF Cisbio (pACC kit).
First, we monitored the activation of AMPK within cells using the indirect activator, compound 1. U-2 OS Flp-In T-REx cells were seeded at 50 K in a 96-well plate and left overnight at 37 C in DMEM GlutaMAX (Thermo Fisher Scientific) supplemented with 10% (vol/vol) FBS and 100 U/ml penicillin G, and 100 μg/ml streptomycin. Cells were treated for 30 mins with varying concentrations of Compound 1 in media lacking FBS and then cells were lysed in 50 μl of Cisbio lysis buffer #1 supplemented with blocking solution as per the manufacturer's protocol (Cisbio). Cells were lysed for 30 mins at room temperature before 16 μl of lysate was incubated with 4 μl of the HTRF antibodies (1:40 dilution of the acceptor and donor (p)ACC antibodies, as per the manufacturers protocol). Lysates were incubated overnight with the antibodies before the 665 nm/620 nm ratio was determined using a MolecularDevices i3 plate reader (with a HTRF cartridge add-on).
To investigate whether treatment of compound 1 with our new identified direct benzocoumarin AMPK activator, compound 2, could improve the activation of AMPK, cells were treated for 30 mins with varying concentrations of compound 1 in the presence or absence of 11 μM compound 2. Cells were cultured and analysed according to example 1.

[2] = system: AMPK β1 WT; test: pACC HTRF assay in AMPKβ1/β2 double knockout U-2 OS cells stably expressing β1 WT; format: cell-based, human
Procedure: (§1) The β1 WT or β1 S108A mutant were stably expressed in AMPKβ1β2 double knockout cells and were treated with varying concentrations of compound 1 for 30 mins at 37 C in the presence or absence of 11 μM of compound 2. Phosphorylation of ACC was assessed using the HTRF Cisbio (pACC kit).
(§2) AMPKβ1/β2 double knockout U-2 OS Flp-In™ T-Rex™ cell lines were generated by Horizon Discovery (Cambridge, UK). Cells were genotyped and analysed by Western blotting to confirm that there was a complete knockout of AMPKβ1/β2. We took these AMPKβ1/β2 double knockout cells, and re-introduced the expression of human β1 wild-type (WT) or a β1 Serine 108 to alanine mutation (S108A). This was achieved using the Flp-In™ system (Invitrogen) present in this cell line and stable cells expressing β1 WT or a β1 S108A mutant were generated according to the manufacturers' protocols. Re-expression of the β1 subunit was confirmed by Western blot analysis.
(§3) Cells stably expressing β1 WT or a β1 S108A mutant were treated with varying concentrations of Compound 1 in the presence or absence of a fixed concentration (11 μM) of compound 2. Cells lysates were subjected to the pACC HTRF (Cisbio) assay to determine the level of phosphorylation of the AMPK substrate, ACC, in cell lysates, as in example 1.

[3] = system: ADaM-binding site AMPK mutant (β1 S108A); test: pACC HTRF assay in AMPKβ1/β2 double knockout U-2 OS cells stably expressing β1 S108A mutant; format: cell-based, human; details: fixed 11 μM compound 2 with varying concentrations of compound 1
Procedure: as §1, §2, §3

[4] = system: AMPK complexes containing the β2 isoform subunit; test: pACC HTRF assay in AMPKβ1/β2 double knockout U-2 OS cells stably expressing β2 WT isoform; format: cell-based, human; details: fixed 11 μM compound 2 with varying concentrations of compound 1
Procedure: U-2 OS cells AMPKβ1β2 double knockout cells stably expressing AMPK β2 were treated with varying concentrations of compound 1 for 30 mins at 37 C in the presence or absence of 11 μM of compound 2. Phosphorylation of ACC was assessed using the HTRF Cisbio (pACC kit).
We took AMPKβ1/β2 double knockout cells, and re-introduced the expression of the human β2 WT isoform. […] Cells stably expressing β2 WT were treated with varying concentrations of Compound 1 in the absence or presence of a fixed concentration (11 μM) of compound 2. Cell lysates were subjected to the pACC HTRF (Cisbio) assay to determine the level of phosphorylation of the AMPK substrate, ACC, in cell lysates, as in Example 1. […] Direct activation AMPK by binding to the ADaM site was impaired or abolished in β2-containing complexes in vitro and in cells. The inability of compound 2 to improve the activation of AMPK by compound 1, was consistent with the knowledge we have generated showing the compound 2 binds to the ADaM-site of AMPK. […] Low doses of compound 1 in combination with compound 2 could activate AMPK.

Compound | phosphorylation of the AMPK substrate ACC (ratio 665/620 nm) [1] | phosphorylation of the AMPK substrate ACC (ratio 665/620 nm) ([1]; listed as compound 1) | pACC (fold increase in activation) ([2]; cells stably expressing β1 WT, varying concentrations, 30 mins at 37 C) | effect on the dose-response curve of compound 1 (pACC) ([1]; fixed 11 μM compound 2 with varying concentrations of compound 1, 30 mins) | effect on the dose-response curve of compound 1 (pACC) ([2]; β1 WT cells, fixed 11 μM compound 2 with varying concentrations of compound 1) | effect on the dose-response curve of compound 1 (pACC) [3] | effect on the dose-response curve of compound 1 (pACC) [4]
O=c1oc2cc(O)ccc2c2ccccc12 [Compound 1, 3-hydroxy-6H-benzo[c]chromen-6-one] | increased the phosphorylation of the AMPK substrate, ACC, in a dose-dependent manner | increases the phosphorylation of the AMPK substrate, ACC, in a dose-dependent manner | able to dose-dependently increase pACC | – | – | – | –
COc1cc(O)c2c(c1)c(=O)oc1cc(O)ccc12 [Compound 2, 3,10-Dihydroxy-8-methoxy-6H-benzo[c]chromen-6-one] | – | – | – | left-shift in the dose-response curve | capable of causing a left-shift and improvement | not able to cause a left-shift and improvement | did not improve the dose-response curve
